The text below walks through data of patent publication US7666864B2, “Bicyclic nitroimidazole-substituted phenyl oxazolidinones” (priority 2008, dated 2010).

The test system of assay [1] is S. aureus ATCC# 29213 (Lzd-resistant). In words: microbe, parasite or virus in culture. It counts as cell-based, Staphylococcus aureus. The following applies: for MIC: Staphylococcus aureus, ATCC29213, linezolid-resistant isogenic strain; for MIC against strain resistant to linezolid: linezolid-resistant S. aureus.
The subject of assay [2] is Staphylococcus aureus ATCC 29213. The assay is described as follows: MIC against Staphylococcus aureus ATCC 29213, microbroth dilution (NCCLS). It counts as cell-based. The following applies: for activity against Staphylococcus aureus ATCC 29213 (in words): Gram-positive species; for MIC: Staphylococcus aureus, ATCC29213, microbroth dilution, read-out: MIC S. aureus ATCC# 29213.

Assay [3] concerns Mycobacterium tuberculosis H37Rv. In words: MIC against Mycobacterium tuberculosis H37Rv (method of Gruppo). It counts as cell-based. The settings on record: for MIC: Mycobacterium tuberculosis, H37RV.
The test system is the same in assay [4]. In words: Anaerobic activity against Mycobacterium tuberculosis H37Rv under Wayne conditions (method of Lenaerts). It counts as cell-based.

Structures are written as SMILES. ≈ marks a conversion by molar mass, not a printed value. Like-named read-outs stand apart in the source and are kept apart here. A value given as a limit tells only on which side of the number the result lay.

Take `CC(=O)NC[C@H]1CN(c2ccc(-c3cnc(O[C@@H]4COc5nc([N+](=O)[O-])cn5C4)nc3)c(F)c2)C(=O)O1` [Example 8, (S,S)—N-(3-{3-Fluoro-4-[2-(2-nitro-6,7-dihydro-5H-imidazo[2,1-b][1,3]oxazin-6-yloxy)-pyrimidin-5-yl]-phenyl}-2-oxo-oxazolidin-5-ylmethyl)-acetamide]: in assay [1], the MIC came out at 8 µg/mL (≈ 15.6 µM) and the “MIC against strain resistant to linezolid” value (from here on “MIC against strain resistant”) was 8 micg/mL. Also, in assay [2], the “activity against Staphylococcus aureus ATCC 29213 (in words)” value is “more potent than linezolid” and the MIC came out at 1 µg/mL (≈ 1.95 µM). The same compound yielded an MIC in assay [3] of 1 µg/mL (≈ 1.95 µM).
As to `CC(=O)NC[C@H]1CN(c2ccc(-c3ccc(CO[C@@H]4COc5nc([N+](=O)[O-])cn5C4)cc3)c(F)c2)C(=O)O1` [Example 31, (S,S)—N-{3-[2-Fluoro-4′-(2-nitro-6,7-dihydro-5H-imidazo[2,1-b][1,3]oxazin-6-yloxymethyl)-biphenyl-4-yl]-2-oxo-oxazolidin-5-ylmethyl}-acetamide], in assay [1], the MIC amounted to 4 µg/mL (≈ 7.61 µM) and the “MIC against strain resistant” value is recorded as 4 micg/mL. In assay [2], the “activity against Staphylococcus aureus ATCC 29213 (in words)” value is “more potent than linezolid” and the MIC came to 1 µg/mL (≈ 1.9 µM). The compound also displayed an MIC in assay [3] of 0.5 µg/mL (≈ 0.951 µM).
Turning to `CC(=O)NC[C@H]1CN(c2ccc(OCC3(C)Cn4cc([N+](=O)[O-])nc4O3)c(F)c2)C(=O)O1` (stereo partly shown) [Example 50, N-{3-[3-Fluoro-4-(2-methyl-6-nitro-2,3-dihydro-imidazo[2,1-b]oxazol-2-ylmethoxy)-phenyl]-2-oxo-oxazolidin-5-ylmethyl}-acetamide], the MIC in assay [2] was 64 µg/mL (≈ 142 µM). In assay [4], the “M. tuberculosis H37Rv % survival at 10 ug/mL (Low O2)” value (shortened to “M. tuberculosis H37Rv % survival”) was determined as 1.8%. Further, in assay [3], the “fold less potent than PA-824, in vitro MIC” value is listed as 8 fold; the “fold less potent than linezolid, in vitro MIC” value is recorded as 2 fold; the MIC amounted to 4 µg/mL (≈ 8.9 µM).
As for `CC(=O)NC[C@H]1CN(c2ccc(N3CCOCC3)c(F)c2)C(=O)O1` [Linezolid, linezolid, reference compound], the MIC came to 64 µg/mL (≈ 190 µM) in assay [1], 2 µg/mL (≈ 5.93 µM) in assay [2] and 2 µg/mL (≈ 5.93 µM) in assay [3]. In addition, in assay [1], the “MIC against strain resistant” value came to 64 micg/mL. The “M. tuberculosis H37Rv % survival” value in assay [4] and in assay [4] (listed as linezolid) was 28.2% throughout.
In the case of `O=[N+]([O-])c1cn2c(n1)OC[C@@H](OCc1ccc(OC(F)(F)F)cc1)C2` [PA-824, reference compound], the MIC was greater than 64 µg/mL in assay [1], greater than 64 µg/mL in assay [2] and 0.5 µg/mL (≈ 1.39 µM) in assay [3]. Besides, in assay [4], the “M. tuberculosis H37Rv % survival” value turned out to be 3.6%.
